system: rat osteocalcin promoter; assay: OCN (osteocalcin) promoter assay in RG-15 (ROS 17/2.8) cells; type: cell-based; conditions: Rattus norvegicus
Method: 4. The OCN Promoter test is described in the “Assay” section of the Description, infra.
3. The OCN (Osteocalcin) Promoter Assay
The OCN Promoter Assay is an indicator and marker for osteoporosis. Desired assay results are EC50 less than or equal to 325 nM. Preferred assay results are less than 50 nM.
(3) Materials and Method for The OCN Promoter Assay:
The activation of osteocalcin by VDR ligands was evaluated in a rat osteoblast-like cell line RG-15 (ROS 17/2.8) stably expressing rat osteocalcin promoter fused with luciferase reporter gene. The stable cell lines were established as reported before (Activation of Osteocalcin Transcription involves interaction of protein kinase A- and Protein kinase C-dependent pathways. Boguslawski, G., Hale, L. V., Yu, X.-P., Miles, R. R., Onyia, J. E., Santerre R. F., Chandrasekhar, S. J Biol. Chem. 275, 999-1006, 2000). Confluent RG-15 cells maintained in DMEM/F-12 medium (3:1) containing 5% FBS, 300 µg/ml G418 and at 37° C. under 5% CO2/95% air atmosphere were trypsinized (0.25% trypsin) and plated into white opaque 96-well cell culture plates (25000 cells/well). After 24 hr, cells (in DMEM/F-12 medium+2% FBS) were treated with various concentrations of compounds, dissolved in DMSO. The final DMSO concentration remained at 0.01% (v/v). After 48 hr treatment, the medium was removed, cells were lysed with 50 µl of lysis buffer (From Luciferase reporter assay system, Roche Diagnostics, Indianapolis, Ind.) and assayed for luciferase activity using the Luciferase Reporter Gene Assay kit from Boehringer Mannheim as per manufacturer's specifications.

EC50 [nM]	Compound
24.2	CCC(CC)(c1ccc(OCC(O)C(C)(C)C)c(C)c1)c1cc(C)c(S(=O)(=O)NCC(=O)O)s1 (centres unmarked) [Ex. 137]
31	CCC(CC)(c1ccc(OCC(=O)C(C)(C)C)c(C)c1)c1cc(C)c(S(=O)(=O)NCC(=O)O)s1 [Ex. 139]
72.5	CCOC(=O)CCNS(=O)(=O)c1sc(C(CC)(CC)c2ccc(OCC(O)C(C)(C)C)c(C)c2)cc1C (centres unmarked) [Ex. 140]
29.2	CCC(CC)(c1ccc(OCC(=O)C(C)(C)C)c(C)c1)c1cc(C)c(S(=O)(=O)NCCC(=O)O)s1 [Ex. 144]
27.7	CCC(CC)(c1ccc(OCC(=O)C(C)(C)C)c(C)c1)c1cc(C)c(S(=O)(=O)N[C@H](C)C(=O)O)s1 [Ex. 146]
128	CCC(CC)(c1ccc(OCC(=S)C(C)(C)C)c(C)c1)c1cc(C)c(S(=O)(=O)N[C@H](C)C(=O)O)s1 [Ex. 147]
236	CCC(CC)(c1ccc(OCC(O)C(C)(C)C)c(C)c1)c1cc(C)c(S(=O)(=O)NC(C)(C)C(=O)OC)s1 (centres unmarked) [Ex. 148]
98.3	CCC(CC)(c1ccc(OCC(O)C(C)(C)C)c(C)c1)c1cc(C)c(S(=O)(=O)Nc2ccccc2C(=O)O)s1 (centres unmarked) [Ex. 149]
55.2	CCC(CC)(c1ccc(OCC(O)C(C)(C)C)c(C)c1)c1cc(C)c(S(=O)(=O)N[C@H](C)C(=O)OC)s1 (some centres unmarked) [Ex. 150]
48.2	CCC(CC)(c1ccc(OCC(O)C(C)(C)C)c(C)c1)c1cc(C)c(S(=O)(=O)N[C@H](C)C(=O)O)s1 (some centres unmarked) [Ex. 151]
187	CCC(CC)(c1ccc(OCC(O)C(C)(C)C)c(C)c1)c1ccc(S(=O)(=O)NCC(=O)O)s1 (centres unmarked) [Ex. 153]
20.5	CCc1cc(C(CC)(CC)c2ccc(S(=O)(=O)NCC(=O)OC)s2)ccc1OCC(O)C(C)(C)C (centres unmarked) [Ex. 154]
7.65	CCCc1cc(C(CC)(CC)c2ccc(S(=O)(=O)NCC(=O)O)s2)ccc1OCC(O)C(C)(C)C (centres unmarked) [Ex. 157]
77	CCC(CC)(c1ccc(OCC(=O)C(C)(C)C)c(C)c1)c1cc(C)c(S(=O)(=O)/N=C/N(C)C)s1 [Ex. 161]
172	CCC(CC)(c1ccc(CCC(O)C(C)(C)C)c(C)c1)c1cc(C)c(C(=O)OC)s1 (centres unmarked) [Ex. 174, 5-{1-Ethyl-1-[4-(3-hydroxy-4,4-dimethyl-pentyl)-3-methyl-phenyl]-propyl}-3-methyl-thiophene-2-carboxylic acid methyl ester]
127	CCC(CC)(c1ccc(CCC(O)C(C)(C)C)c(C)c1)c1cc(C)c(C(=O)O)s1 (centres unmarked) [Ex. 175, 5-{1-Ethyl-1-[4-(3-hydroxy-4,4-dimethyl-pentyl)-3-methyl-phenyl]-propyl}-3-methyl-thiophene-2-carboxylic acid]
231	CCC(CC)(c1ccc(CCC(=O)C(C)(C)C)c(C)c1)c1cc(C)c(S(=O)(=O)NCC(=O)O)s1 [Ex. 182]

Compound	EC50 [nM]
CCC(CC)(c1ccc(OCC(O)C(C)(C)C)c(C)c1)c1ccc(C(=O)O)s1 (centres unmarked) [Ex. 88, 3′-[4-(2-hydroxy-3,3-dimethylbutoxy)-3-methylphenyl]-3′-[5-carboxy-thiophen-2-yl]pentane]	169
CCC(CC)(c1ccc(OCC(=O)C(C)(C)C)c(C(C)C)c1)c1ccc(C(=O)OC)s1 [Ex. 91, 3′-[4-(2-oxo-3,3-dimethylbutoxy)-3-(1-methylethyl)phenyl]-3′-[5-methoxycarbonyl-thiophen-2-yl]pentane]	212
CCc1cc(C(CC)(CC)c2ccc(C(=O)O)s2)ccc1OCC(C)(O)C(C)(C)C (centres unmarked) [Ex. 107, 3′-[4-(2-hydroxy-2,3,3-trimethylbutoxy)-3-ethylphenyl]-3′-[5-carboxy-thiophen-2-yl]pentane]	42.3
CCCc1cc(C(CC)(CC)c2ccc(C(=O)O)s2)ccc1OCC(C)(O)C(C)(C)C (centres unmarked) [Ex. 111, 3′-[4-(2-hydroxy-2,3,3-trimethylbutoxy)-3-n-propylphenyl]-3′-[5-carboxy-thiophen-2-yl]pentane]	34.5
CCC(CC)(c1ccc(OCC(C)(O)C(C)(C)C)c(OC)c1)c1ccc(C(=O)N[C@@H](C)C(=O)O)s1 (stereo partly drawn) [Ex. 115, d-3′-[4-(2-hydroxy-2,3,3-trimethylbutoxy)-3-methoxyphenyl]-3′-[5-(carboxy-1-ethylamino)carbonyl-thiophen-2-yl]pentane]	19.9
CCC(CC)(c1ccc(OCC(=O)C(C)(C)C)c(C)c1)c1cc(C)c(C(=O)N(C)CC(=O)O)s1 [Ex. 118, N-methyl-2-[(5-{1-[4-(3,3-Dimethyl-2-oxo-butoxy)-3-methyl-phenyl]-1-ethyl-propyl}-3-methyl-thiophene-2-carbonyl)-methylamino]-acetic acid]	32.2
CCC(CC)(c1ccc(OCC(O)C(C)(C)C)c(C)c1)c1cc(C)c(C(=O)N(C)CC(=O)O)s1 (centres unmarked) [Ex. 123, N-2-[(5-{1-ethyl-1-[4-(2-hydroxy-3,3-dimethyl-butoxy)-3-methyl-phenyl]-propyl}-3-methyl-thiophene-2-carbonyl)-methylamino]-acetic acid]	475
CCC(CC)(c1ccc(OCC(O)C(C)(C)C)c(C)c1)c1cc(C)c(CN(CC(=O)O)C(C)=O)s1 (centres unmarked) [Ex. 130, 2-[N-acetyl-(5-{1-ethyl-1-[4-(2-hydroxy-3,3-dimethyl-butoxy)-3-methyl-phenyl]-propyl}-3-methyl-thiophen-2-ylmethyl)-amino]-acetic acid]	49.7
CCC(CC)(c1ccc(OCC(=O)C(C)(C)C)c(C)c1)c1cc(C)c(CN(CC(=O)O)C(C)=O)s1 [Ex. 133, 2-[N-Acetyl-(5-{1-[4-(3,3-dimethyl-2-oxo-butoxy)-3-methyl-phenyl]-1-ethyl-propyl}-3-methyl-thiophen-2-yl-methyl)-amino]-acetic acid]	49.2
CCC(=O)NS(=O)(=O)c1sc(C(CC)(CC)c2ccc(OCC(=O)C(C)(C)C)c(C)c2)cc1C [Ex. 163, 5-{1-[4-(3,3-dimethyl-2-oxo-butoxy)-3-methyl-phenyl]-1-ethyl-propyl}-3-methyl-thiophene-2-sulfonic acid propionyl-amide]	106
CCC(CC)(c1ccc(OCC(=O)C(C)(C)C)c(C)c1)c1cc(C)c(S(=O)(=O)NC(=O)C(C)C)s1 [Ex. 164, 5-{1-[4-(3,3-Dimethyl-2-oxo-butoxy)-3-methyl-phenyl]-1-ethyl-propyl}-3-methyl-thiophene-2-sulfonic acid isobutyryl-amide]	150
CCC(CC)(c1ccc(OCC(=O)C(C)(C)C)c(C)c1)c1cc(C)c(S(=O)(=O)NC(=O)C2CC2)s1 [Ex. 165, 5-{1-[4-(3,3-Dimethyl-2-oxo-butoxy)-3-methyl-phenyl]-1-ethyl-propyl}-3-methyl-thiophene-2-sulfonic acid cyclopropanecarbonyl-amide]	138
CCC(CC)(c1ccc(OCC(=O)C(C)(C)C)c(C)c1)c1cc(C)c(S(=O)(=O)NC(=O)COC)s1 [Ex. 166, 5-{1-[4-(3,3-Dimethyl-2-oxo-butoxy)-3-methyl-phenyl]-1-ethyl-propyl}-3-methyl-thiophene-2-sulfonic acid (2-methoxy-acetyl)-amide]	151
CCC(CC)(c1ccc(OCC(O)C(C)(C)C)c(C)c1)c1cc(C)c(-c2n[nH]c(=S)o2)s1 (centres unmarked) [Ex. 172, 5-(5-{1-Ethyl-1-[4-(2-hydroxy-3,3-dimethyl-butoxy)-3-methyl-phenyl]-propyl}-3-methyl-thiophen-2-yl)-3H-[1,3,4]oxadiazole-2-thione]	17.2
CCOC(=O)CSCc1sc(C(CC)(CC)c2ccc(OCC(=O)C(C)(C)C)c(C)c2)cc1C [Ex. 183, (5-{1-[4-(3,3-Dimethyl-2-oxo-butoxy)-3-methyl-phenyl]-1-ethyl-propyl}-3-methyl-thiophen-2-ylmethylsulfanyl)-acetic acid ethyl ester]	38.6

system: KERtr cells; assay: Keratinocyte proliferation assay (BrdU incorporation); type: cell-based; conditions: Homo sapiens, Keratinocyte, 72 h, KERtr human skin keratinocytes, 72 hr treatment, read-out: Kera. Prolif. IC50
Method: 6. The keratinocyte proliferation assay is described in the “Assay” section of the Description, infra.
5. The Keratinocyte Proliferation Assay
This Assay is indicative for the treatment of psoriasis.
(5) The Keratinocyte Proliferation Assay:
KERtr cells (Human skin keratinocyte transformed with a retrovirus vector, obtained from ATCC) were plated in 96-well flat-bottomed plates (3000 cells/well) in 100 µl keratinocyte serum free medium supplemented with bovine pituitary extract in the absence of EGF (Life Technologies, Rockville, Md.) and incubated at 37° C. for two days. The cells were treated with various concentrations of VDR ligands (ten-fold serial dilution from 10,000 nM to 0.1 nM in triplicate), dissolved in 100 µl keratinocyte serum free medium supplemented with bovine pituitary extract in the absence of EGF and incubated at 37° C. for 72 hr. […] Potency values (IC50) values were determined as the concentration (nM) of compound that elicited a half-maximal response.

Compound	IC50 [nM]
CCC(CC)(c1ccc(OCC(O)C(C)(C)C)c(C)c1)c1cc(C)c(CS(C)(=O)=O)s1 (single isomer, unassigned) [Ex. 11B]	216
CCC(CC)(c1ccc(OCS(C)(=O)=O)c(C)c1)c1cc(C)c(CCC(O)C(C)(C)C)s1 (single isomer, unassigned) [Ex. 15A]	76
CCC(CC)(c1ccc(OCC(O)C(C)(C)C)c(C)c1)c1cc(C)c(C(=O)NCC(=O)O)s1 (single isomer, unassigned) [Ex. 48]	71.5
CCC(CC)(c1ccc(OCC(O)C(C)(C)C)c(C)c1)c1cc(C)c(C(=O)OC)s1 (centres unmarked) [Ex. 6A]	439
CCC(CC)(c1ccc(OCC(O)C(C)(C)C)c(C)c1)c1cc(C)c(S(=O)(=O)NCCC(=O)O)s1 (centres unmarked) [Ex. 142]	300
CCC(CC)(c1ccc(OCC(O)C(C)(C)C)c(C)c1)c1cc(C)c(-c2n[nH]c(=S)o2)s1 (centres unmarked) [Ex. 173]	478
